Assay results: US20230372481A1 (priority 2020, published 2023)

Columns and labels:
[1] = test system: PBMCs of COVID-19 convalescent donors; test: Proliferation assay with CFSE in the presence of dexamethasone; assay type: cell-based, human; settings: dexamethasone 10-7-10-6 M
Procedure: Around 2 million cells where incubated in a P24 plaque in 1 ml of supplemented medium with 1.5% v/v PHA (Phytohemagglutinin M form. Ref. 10576015), Mouse Anti-Human CD3 (Clone OKT3; BD Biosciences, Ref: 566685; final concentration of 0.05 μg/ml) and CD28/CD49d Purified (Clone L293 L25 RUO GMP) (BD Biosciences. Ref. 347690; final concentration 5 μg/ml).
The cells where incubated at 37° C. for 3 days and finally a CFSE proliferation assay (CellTrace™ CFSE Cell Proliferation Kit, Invitrogen, Ref.) was performed to determine if high doses of the drug decrease the division index of the cells. The cells were stained with CFSE and the different cell surface antibodies. Then, cell acquisition was performed using a Navios cytometer (Beckman Coulter), acquiring an average of 200,000 cells. The analysis was made using FlowJo 10.7.1 (FlowJoLLC). N=4 mean of the results was performed.

[2] = test system: PBMCs of COVID-19 convalescent donors; test: Secretion of IFNγ in the presence of dexamethasone with peptivators for SARS-COV-2; assay type: cell-based, human; settings: three SARS-CoV-2 peptides
Procedure: Then they were mixed with PepTivators for SARS-CoV2 (Miltenyi Biotec. PepTivator Prot_M, Ref. 130-126-702; PepTivator Prot_N, Ref. 130-126-698 & PepTivator Prot_S, Ref. 130-126-700. Final concentration of 0.6 nmol/ml) for 5 hours at 37° C.; then IFNγ production of T cells were measured as before using the Miltenyi Biotec IFNg Detection Kit, Ref: 130-054-202. In all cases there was a basal condition, without peptivators and the cells where previously incubated with mouse Anti-Human CD3 (Clone OKT3; BD Biosciences, Ref:
566685; final concentration of 2.8 μg/ml and CD28/CD49d Purified (Clone L293 L25 RUO GMP) (BD Biosciences. Ref. 347690; final concentration 5 μg/ml). Cell acquisition was performed using a Navios cytometer (Beckman Coulter), acquiring an average of 200,000 cells. The analysis was made using FlowJo 10.7.1 (FlowJoLLC). N=3, mean of the results was performed.

[3] = DEX 10^-7M, 72 hours (D3), listed as dexamethasone

C[C@@H]1C[C@H]2[C@@H]3CCC4=CC(=O)C=C[C@]4(C)[C@@]3(F)[C@@H](O)C[C@]2(C)[C@@]1(O)C(=O)CO [DEX, dexamethasone]
Reduction of proliferation within the CD45RA− memory T cells [1]: 0-5%
Percentage of IFNg, CD45RA+ ([2]; DEX 10^-6M, 24 hours (D1)): 0.00%
Percentage of IFNg, CD45RA+CD3+ ([2]; DEX 10^-6M, 24 hours (D1)): 0.00%
Percentage of IFNg, CD45RA+CD3+CD4+ ([2]; DEX 10^-6M, 24 hours (D1)): 0.32%
Percentage of IFNg, CD45RA+CD3+CD8+ ([2]; DEX 10^-6M, 24 hours (D1)): 0.00%
Percentage of IFNg, CD45RA− ([2]; DEX 10^-6M, 24 hours (D1)): 2.0%
Percentage of IFNg, CD45RA− CD3+ ([2]; DEX 10^-6M, 24 hours (D1)): 0.7%
Percentage of IFNg, CD45RA− CD3+CD4+ ([2]; DEX 10^-6M, 24 hours (D1)): 1.1%
Percentage of IFNg, CD45RA− CD3+CD8+ ([2]; DEX 10^-6M, 24 hours (D1)): 0.1%
Percentage of IFNg, CD45RA+ ([2]; DEX 10^-6M, 72 hours (D3)): 0.61%
Percentage of IFNg, CD45RA+CD3+ ([2]; DEX 10^-6M, 72 hours (D3)): 1.06%
Percentage of IFNg, CD45RA+CD3+CD4+ ([2]; DEX 10^-6M, 72 hours (D3)): 1.43%
Percentage of IFNg, CD45RA+CD3+CD8+ ([2]; DEX 10^-6M, 72 hours (D3)): 1.29%
Percentage of IFNg, CD45RA− ([2]; DEX 10^-6M, 72 hours (D3)): 2.68%
Percentage of IFNg, CD45RA− CD3+ ([2]; DEX 10^-6M, 72 hours (D3)): 3.27%
Percentage of IFNg, CD45RA− CD3+CD4+ ([2]; DEX 10^-6M, 72 hours (D3)): 3.04%
Percentage of IFNg, CD45RA− CD3+CD8+ ([2]; DEX 10^-6M, 72 hours (D3)): 4.50%
Percentage of IFNg, CD45RA+ ([2]; DEX 10^-7M, 24 hours (D1)): 0.27%
Percentage of IFNg, CD45RA+CD3+ ([2]; DEX 10^-7M, 24 hours (D1)): 0.40%
Percentage of IFNg, CD45RA+CD3+CD4+ ([2]; DEX 10^-7M, 24 hours (D1)): 0.11%
Percentage of IFNg, CD45RA+CD3+CD8+ ([2]; DEX 10^-7M, 24 hours (D1)): 1.77%
Percentage of IFNg, CD45RA− ([2]; DEX 10^-7M, 24 hours (D1)): 5.9%
Percentage of IFNg, CD45RA− CD3+ ([2]; DEX 10^-7M, 24 hours (D1)): 1.7%
Percentage of IFNg, CD45RA− CD3+CD4+ ([2]; DEX 10^-7M, 24 hours (D1)): 2.4%
Percentage of IFNg, CD45RA− CD3+CD8+ ([2]; DEX 10^-7M, 24 hours (D1)): 2.6%
Percentage of IFNg, CD45RA+ ([2]; DEX 10^-7M, 72 hours (D3)): 2.08%
Percentage of IFNg, CD45RA+CD3+ ([2]; DEX 10^-7M, 72 hours (D3)): 5.12%
Percentage of IFNg, CD45RA+CD3+CD4+ ([2]; DEX 10^-7M, 72 hours (D3)): 3.29%
Percentage of IFNg, CD45RA+CD3+CD8+ ([2]; DEX 10^-7M, 72 hours (D3)): 3.91%
Percentage of IFNg, CD45RA− ([2]; DEX 10^-7M, 72 hours (D3)): 7.21%
Percentage of IFNg, CD45RA− CD3+ ([2]; DEX 10^-7M, 72 hours (D3)): 8.03%
Percentage of IFNg, CD45RA− CD3+CD4+ ([2]; DEX 10^-7M, 72 hours (D3)): 7.06%
Percentage of IFNg, CD45RA− CD3+CD8+ ([2]; DEX 10^-7M, 72 hours (D3)): 8.67%
Percentage of IFNg, CD45RA− [2, 3]: 2.08%
Percentage of IFNg, CD45RA− CD3+ [2, 3]: 5.12%
Percentage of IFNg, CD45RA− CD3+CD4+ [2, 3]: 3.29%
Percentage of IFNg, CD45RA− CD3+CD8+ [2, 3]: 3.91%
